In PubChem BioAssay (NCI):
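Protocol summary: plate cells (96-well), add compound at 5 concentrations, incubate 48 h, interpolate endpoints linearly. Here, GI50 denotes the concentration required for 50% inhibition of growth. At the TGI there is no net growth.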

Columns and labels:
Assay in all cases: NCI anticancer screen, dose series, 48 h
HOP-92 NSCLC = system: HOP-92 NSCLC
SR leukemia = system: SR leukemia
UACC-257 melanoma = system: UACC-257 melanoma
UO-31 renal = system: UO-31 renal
SK-MEL-5 melanoma = system: SK-MEL-5 melanoma
EKVX NSCLC = system: EKVX NSCLC
KM12 colon = system: KM12 colon
OVCAR-8 ovarian = system: OVCAR-8 ovarian
MCF7 breast = system: MCF7 breast
NCI-H522 lung = system: NCI-H522 lung
CAKI-1 renal = system: CAKI-1 renal
T-47D breast = system: T-47D breast
NCI-H23 lung = system: NCI-H23 lung
A498 renal = system: A498 renal
OVCAR-4 ovarian = system: OVCAR-4 ovarian
BT-549 breast = system: BT-549 breast
NCI-H460 lung = system: NCI-H460 lung
MOLT-4 leukemia = system: MOLT-4 leukemia
MDA-MB-435 = system: MDA-MB-435
SF-539 CNS = system: SF-539 CNS
SW-620 colon = system: SW-620 colon
HCC-2998 colon = system: HCC-2998 colon
SK-MEL-2 melanoma = system: SK-MEL-2 melanoma
MALME-3M melanoma = system: MALME-3M melanoma
NCI-H226 lung = system: NCI-H226 lung
UACC-62 melanoma = system: UACC-62 melanoma
SF-268 CNS = system: SF-268 CNS
SK-MEL-28 melanoma = system: SK-MEL-28 melanoma
OVCAR-3 ovarian = system: OVCAR-3 ovarian
SN12C renal = system: SN12C renal
MDA-MB-231 breast = system: MDA-MB-231 breast
IGROV1 ovarian = system: IGROV1 ovarian
HOP-62 NSCLC = system: HOP-62 NSCLC
DU-145 prostate = system: DU-145 prostate
SK-OV-3 ovarian = system: SK-OV-3 ovarian
RPMI-8226 leukemia = system: RPMI-8226 leukemia
ACHN renal = system: ACHN renal
M14 melanoma = system: M14 melanoma
HCT-15 colon = system: HCT-15 colon
SNB-19 CNS = system: SNB-19 CNS
SF-295 CNS = system: SF-295 CNS
HCT-116 colon = system: HCT-116 colon
K-562 leukemia = system: K-562 leukemia
TK-10 renal = system: TK-10 renal
LOX IMVI melanoma = system: LOX IMVI melanoma
RXF 393 renal = system: RXF 393 renal
SNB-75 CNS = system: SNB-75 CNS
PC-3 prostate = system: PC-3 prostate
A549 NSCLC = system: A549 NSCLC
U251 CNS = system: U251 CNS
HS 578T breast = system: HS 578T breast
HL-60(TB) leukemia = system: HL-60(TB) leukemia
COLO 205 colon = system: COLO 205 colon
OVCAR-5 ovarian = system: OVCAR-5 ovarian
786-0 renal = system: 786-0 renal
HT29 colon = system: HT29 colon

CCOCCOC[C@H]1CCCN(c2ccnc3sc(C(N)=O)c(N)c23)C1
GI50 (HOP-92 NSCLC): 44.3 µM | TGI (HOP-92 NSCLC): > 100 µM | GI50 (SR leukemia): 11 µM | TGI (SR leukemia): > 100 µM | GI50 (UACC-257 melanoma): 12.4 µM | TGI (UACC-257 melanoma): > 100 µM | GI50 (UO-31 renal): 15.3 µM | TGI (UO-31 renal): > 100 µM | GI50 (SK-MEL-5 melanoma): 4.05 µM | TGI (SK-MEL-5 melanoma): 36.9 µM | GI50 (EKVX NSCLC): 27.9 µM | TGI (EKVX NSCLC): > 100 µM | GI50 (KM12 colon): 36.6 µM | TGI (KM12 colon): > 100 µM | GI50 (OVCAR-8 ovarian): 25.1 µM | TGI (OVCAR-8 ovarian): > 100 µM | GI50 (MCF7 breast): 25.1 µM | TGI (MCF7 breast): > 100 µM | GI50 (NCI-H522 lung): 10.3 µM | TGI (NCI-H522 lung): > 100 µM | GI50 (CAKI-1 renal): 30.5 µM | TGI (CAKI-1 renal): > 100 µM | GI50 (T-47D breast): 3.9 µM | TGI (T-47D breast): > 100 µM | GI50 (NCI-H23 lung): 10.6 µM | TGI (NCI-H23 lung): > 100 µM | GI50 (A498 renal): > 100 µM | TGI (A498 renal): > 100 µM | GI50 (OVCAR-4 ovarian): 13.5 µM | TGI (OVCAR-4 ovarian): > 100 µM | GI50 (BT-549 breast): 9.35 µM | TGI (BT-549 breast): > 100 µM | GI50 (NCI-H460 lung): > 100 µM | TGI (NCI-H460 lung): > 100 µM | GI50 (MOLT-4 leukemia): 10.1 µM | TGI (MOLT-4 leukemia): > 100 µM | GI50 (MDA-MB-435): 29.8 µM | TGI (MDA-MB-435): > 100 µM | GI50 (SF-539 CNS): > 100 µM | TGI (SF-539 CNS): > 100 µM | GI50 (SW-620 colon): > 100 µM | TGI (SW-620 colon): > 100 µM | GI50 (HCC-2998 colon): > 100 µM | TGI (HCC-2998 colon): > 100 µM | GI50 (SK-MEL-2 melanoma): 11.1 µM | TGI (SK-MEL-2 melanoma): > 100 µM | GI50 (MALME-3M melanoma): 86.6 µM | TGI (MALME-3M melanoma): > 100 µM | GI50 (NCI-H226 lung): > 100 µM | TGI (NCI-H226 lung): > 100 µM | GI50 (UACC-62 melanoma): 6.51 µM | TGI (UACC-62 melanoma): > 100 µM | GI50 (SF-268 CNS): 56.4 µM | TGI (SF-268 CNS): > 100 µM | GI50 (SK-MEL-28 melanoma): 23.5 µM | TGI (SK-MEL-28 melanoma): > 100 µM | GI50 (OVCAR-3 ovarian): 23.6 µM | TGI (OVCAR-3 ovarian): > 100 µM | GI50 (SN12C renal): 29.8 µM | TGI (SN12C renal): > 100 µM | GI50 (MDA-MB-231 breast): 58.7 µM | TGI (MDA-MB-231 breast): > 100 µM | GI50 (IGROV1 ovarian): 35 µM | TGI (IGROV1 ovarian): > 100 µM | GI50 (HOP-62 NSCLC): > 100 µM | TGI (HOP-62 NSCLC): > 100 µM | GI50 (DU-145 prostate): 73.1 µM | TGI (DU-145 prostate): > 100 µM | GI50 (SK-OV-3 ovarian): 40.3 µM | TGI (SK-OV-3 ovarian): > 100 µM | GI50 (RPMI-8226 leukemia): 1.65 µM | TGI (RPMI-8226 leukemia): > 100 µM | GI50 (ACHN renal): 9.95 µM | TGI (ACHN renal): > 100 µM | GI50 (M14 melanoma): 63.1 µM | TGI (M14 melanoma): > 100 µM | GI50 (HCT-15 colon): > 100 µM | TGI (HCT-15 colon): > 100 µM | GI50 (SNB-19 CNS): > 100 µM | TGI (SNB-19 CNS): > 100 µM | GI50 (SF-295 CNS): 10.4 µM | TGI (SF-295 CNS): > 100 µM | GI50 (HCT-116 colon): 14.4 µM | TGI (HCT-116 colon): > 100 µM | GI50 (K-562 leukemia): 8.44 µM | TGI (K-562 leukemia): > 100 µM | GI50 (TK-10 renal): > 100 µM | TGI (TK-10 renal): > 100 µM | GI50 (LOX IMVI melanoma): 29.3 µM | TGI (LOX IMVI melanoma): > 100 µM | GI50 (RXF 393 renal): 47.8 µM | TGI (RXF 393 renal): > 100 µM | GI50 (SNB-75 CNS): 63.9 µM | TGI (SNB-75 CNS): > 100 µM | GI50 (PC-3 prostate): 21.7 µM | TGI (PC-3 prostate): > 100 µM | GI50 (A549 NSCLC): 77.4 µM | TGI (A549 NSCLC): > 100 µM | GI50 (U251 CNS): > 100 µM | TGI (U251 CNS): > 100 µM | GI50 (HS 578T breast): 44.1 µM | TGI (HS 578T breast): > 100 µM | GI50 (HL-60(TB) leukemia): 48.7 µM | TGI (HL-60(TB) leukemia): > 100 µM | GI50 (COLO 205 colon): 59.7 µM | TGI (COLO 205 colon): > 100 µM | GI50 (OVCAR-5 ovarian): > 100 µM | TGI (OVCAR-5 ovarian): > 100 µM | GI50 (786-0 renal): > 100 µM | TGI (786-0 renal): > 100 µM | GI50 (HT29 colon): > 100 µM | TGI (HT29 colon): > 100 µM
